# Experimental data published in PMC7870626, “Neurotoxicity and underlying cellular changes of 21 mitochondrial respiratory chain inhibitors” (Archives of Toxicology, 2021).
# Entries after “also recorded” stand apart in the source; their conditions may differ.
# Assays:
# U2OS cells = experiment: cells; assay type: cell-based; conditions: Homo sapiens, U2OS, 24 h, read-out: Cytotox EC25 U2OS
# Procedure: A cell suspension of 100,000 cells/ml was prepared in assay medium, and white 384-well plates were filled with 30 µl/well cell suspension. Twenty-four hours after seeding, a dilution series of test compound, as well as positive and negative controls, were added to the cells. After 24 h exposure, the medium was removed, and 10 µl of Triton X-100 lysis buffer was added to each well. The luminescent signal was determined in a luminometer by injecting BDS Illuminate Mix and measuring the light emission. The Cytotox CALUX cell line constitutively expresses a high level of luciferase protein; the light emission is therefore proportional to the cell number of live cells, and its decrease can be used as measure of cytotoxicity. The light emission generated by cells exposed to vehicle control was set to 100%, and the luminescence of cells exposed to the positive control toxicant tributyltin acetate [100 µM] was set to 0%. The light output of the cells exposed to different concentrations of test compounds was scaled accordingly.
# LUHMES cells [1] = experiment: NeuriTox test: neurite area and viability, 24 h; assay type: cell-based, human; conditions: Homo sapiens
# Procedure: (§1) The NeuriTox test was performed as previously described (Delp et al. [2018b]; Krug et al. [2013a]; Stiegler et al. [2011]). Briefly, cells differentiated for 48 h were re-seeded into 96-well plates at a density of 100,000 cells/cm^2 in DM without cAMP and GDNF, and treated 1 h after seeding for 24 h. Subsequently, multiple endpoints were determined, e.g., neurite outgrowth (i.e., NeuriTox test), resazurin reduction, intracellular ATP content, gene expression levels from TempO-Seq analysis, and proteasomal activity. For the 120 h exposure scenario, LUHMES cells were differentiated for another 3 days after reseeding before they were treated on day 5 (d5) and d7 by a half medium exchange. Endpoints were determined on d10 of differentiation.
# (§2) Image acquisition and analysis was performed as described previously (Krug et al. [2013a]; Schildknecht et al. [2013]; Stiegler et al. [2011]). In brief, cells were live-stained with 1 µg/ml Hoechst H-33342 and 1 µM calcein-AM and image acquisition was done by an automated high content imager (Cellomics, Waltham, MA, USA). Cell viability was determined as ratio of live cells (cell bodies being Calcein- and Hoechst-positive) relative to the total amount of cells (Hoechst-positive cell bodies). Neurite area was calculated by subtracting the somatic area (Hoechst-positive area plus surrounding) from the calcein-positive area.
# LUHMES cells [2] = experiment: Intracellular ATP content after NeuriTox exposure; assay type: cell-based; conditions: Homo sapiens; NeuriTox exposure scheme, 24 h; read-out: LUHMES 24 h EC25 ATP (converted)
# Procedure: as §1
# Plates from the NeuriTox test were further used after imaging for determination of alternative endpoints. Intracellular ATP was determined as described earlier (Delp et al. [2019]). In brief, CellTiterGlo 2.0 assay mix (Promega) containing luciferase was added after imaging, and luminescence was recorded. For the determination of resazurin reduction, a 10 × resazurin stock solution was added after imaging to the medium (final resazurin concentration 2 µg/ml) (Delp et al. [2018a]). After 60 min incubation, resazurin fluorescence was recorded (ex: 530 nm, em: 590 nm). Background-corrected data was used for further analysis.
# SH-SY5Y cells [3] = assay type: cell-based, human; conditions: 120 h exposure, up to 10 µM
# Procedure: The cells are able to form neurites and display several dopaminergic characteristics. […] Differentiation was initiated 24 h later (on day 0, d0) by exchange to 100 µl/well differentiation medium (DMEM:F12, supplemented with 1 µM all-trans retinoic acid (RA), 1 × N2 supplement, 2 mM L-glutamine, 100 µg/ml streptomycin, and 100 U/ml penicillin). All media and supplements were obtained from Gibco (ThermoFisher) except from RA (Sigma).
# On d3, 100 µl of fresh differentiation medium were added to the wells. For the 120 h exposure, this medium contained twice the final treatment concentration. On d6, 100 µl from each well were removed, and the procedure was repeated and the cells were analyzed on d8. For the 24 h exposure, cells received an addition of 100 µl pure differentiation medium on d3 and were treated with compounds as described above on d6 for 24 h before analysis. […] The cells were incubated with the stain mixture for 20 min at 37 °C, 5% CO2. After incubation, 130 µL of differentiation medium were added to all the wells to stop further staining of the cells. Images were obtained using ImageXpress® Micro (Molecular Devices). […] The mean neurite length was calculated using the Neurite Outgrowth plug-in in the MetaXpress® Software. Outgrowths were defined as cytoplasmic prolongations with a maximum width of 2 µm (3 pixels). The minimum outgrowth size needed to be logged as significant was defined as 15 µm (23 pixels).
# LUHMES cells [4] = experiment: LUHMES 120 h exposure scenario, neurite effects; assay type: cell-based, human
# Procedure: as §1, §2
# SH-SY5Y cells [5] = experiment: Mitochondrial membrane potential (rhodamine 123), KE2 assay; assay type: cell-based, human; conditions: Homo sapiens, SH-SY5Y, 24 h, read-out: pEC25 MMP (concentration where MMP was reduced by 25%)
# Procedure: Cells were plated at a cell density of 29,500 cells/cm^2 and handled as described above for the neurite SH-SY5Y degeneration. On d6 of differentiation, 50% of the medium was replaced by differentiation medium containing 2 µM Rhodamine 123 (ThermoFisher). After 45 min of preloading at 37 °C with 5% CO2 in darkness, the Rhodamine 123 solution was completely removed and cells were carefully washed once with 200 µl DMEM:F12. Subsequently, 50 µl differentiation medium per well were added followed by the addition of 50 µl/well of test compounds in medium. After 24 h of exposure to the test compounds, the nuclei were stained for 30 min with 20 µL of a solution containing 20 µM Hoechst 33342, and the images were then acquired with a 10 × objective lens using the ImageXpress® Micro (Molecular Devices) high content microplate imager. Nuclei were evaluated in the DAPI channel (excitation 377 ± 50 nm, emission 447 ± 60 nm), whereas Rhodamine 123 fluorescence was detected in the FITC channel (excitation 475 ± 34 nm, emission 536 ± 40 nm). Analysis of the Hoechst 33,342 and Rhodamine 123 fluorescence was performed using the MetaXpress® Software (Molecular Devices) with the Transfluor HT plug-in and the parameters nuclei (for Hoechst-33342) and integrated granule intensity (for Rhodamine 123). Mitochondrial membrane potential (MMP) was quantified as the total fluorescence intensity of Rhodamine 123 in relation to the number of Hoechst-stained nuclei.
smiles,measurement,setting,value
Cc1nn(C)c(Oc2ccccc2)c1C=NOCc1ccc(C(=O)OC(C)(C)C)cc1 [Fenpyroximate],EC25,U2OS cells,> 50.1 µM
same,EC25,"LUHMES cells [1]; NeuriTox exposure scheme, 24 h, read-out: LUHMES 24 h EC25 NA (neurite area) (converted)",15.8 µM
same,EC25,"LUHMES cells [1]; NeuriTox exposure scheme, 24 h, read-out: LUHMES 24 h EC25 V (viability) (converted)",39.8 µM
same,EC25,"LUHMES cells [1]; NeuriTox test, neurite outgrowth impairment, LUHMES 24 h, read-out: EC25 KE4 (AO) Neurite toxicity (converted)",15.8 µM
same,EC25,LUHMES cells [2],12.6 µM
same,Neurite degeneration (in words),SH-SY5Y cells [3],degeneration of neurites; also recorded: increased neurite degeneration
same,Reduction in viability,SH-SY5Y cells [3],> 25%
same,"Increase in sensitivity of neurite EC25, 120 h versus 24 h exposure",LUHMES cells [4],five-to-eightfold
same,EC25,SH-SY5Y cells [5],0.794 µM
